*1 amine or outer side, *2 acyl side, *3 side chain or, on linkers, in order; H or OH if unused. Where a SMILES comes first, the peptide text is derived from it. Side-chain parts run from the residue outwards. [ ]: non-standard residue; d: D form. X2 = O=C([C@H](CCNCc1ccccn1)N[*:1])[*:2]; Phe(4-F) = N[C@@H](Cc1ccc(F)cc1)C(=O)O; Pro(3S-OH) = O=C(O)[C@H]1NCC[C@@H]1O; Cha = N[C@@H](CC1CCCCC1)C(=O)O; Chg = N[C@H](C(=O)O)C1CCCCC1; Tle = CC(C)(C)[C@H](N)C(=O)O; dDab = NCC[C@@H](N)C(=O)O; Orn = NCCC[C@H](N)C(=O)O; Dab = NCC[C@H](N)C(=O)O; Nva = CCC[C@H](N)C(=O)O; Dap = NC[C@H](N)C(=O)O

This data set has as its system human red blood cells (hRBC). Kind of data set: Hemolysis of human red blood cells. It is filed as cell-based. Particulars: red cells of human, 1 h, 100. The protocol: Lyophilized peptides were weighed on a Microbalance (Mettler MT5) and dissolved in sterile water to a final concentration of 1 mg/ml. Stock solutions were kept at +4° C., light protected.
The peptides were tested for their hemolytic activity against human red blood cells (hRBC). Fresh hRBC were washed three times with phosphate buffered saline (PBS) and centrifuged for 10 min at 2000×g. Compounds (100 μg/ml) were incubated with 20% hRBC (v/v) for 1 h at 37° C. and shaking at 300 rpm. The final erythrocyte concentration was approximately 0.9×10^9 cells/ml. A value of 0% and 100% cell lyses, respectively, was determined by incubation of hRBC in the presence of PBS containing 0.001% acetic acid and 2.5% Triton X-100 in H2O, respectively. The samples were centrifuged, the supernatants were 8-fold diluted in PBS buffer and the optical densities (OD) were measured at 540 nm. The 100% lyses value (OD540H2O) gave an OD540 of approximately 0.5-1.0.
Percent hemolysis was calculated as follows: (OD540peptide/OD540H2O)×100%.
As to `CC(C)C[C@@H]1NC(=O)[C@@H]2CCCN2C(=O)[C@H]2CCCN2C(=O)[C@H](CO)NC(=O)[C@H](C)NC(=O)[C@H](C(C)(C)C)NC(=O)[C@H](CCN)NC(=O)[C@H](Cc2c[nH]c3ccccc23)NC(=O)[C@H](CCN)NC(=O)[C@@H](CCN)NC(=O)[C@H](CCCNC(=N)N)NC(=O)[C@H](CCN)NC(=O)[C@H](Cc2ccc(O)cc2)NC(=O)[C@H](CO)NC1=O` [compound 98] (cyclo(LSY[Dab]R[dDab][Dab]W[Dab][Tle]AS[dP]P)), the “Hemolysis at 100 μg/ml” value is listed as 1%.
For the molecule `CCC[C@@H]1NC(=O)[C@@H]2CCCN2C(=O)[C@H]2CCCN2C(=O)[C@H](CO)NC(=O)[C@H](CO)NC(=O)[C@H](C(C)(C)C)NC(=O)[C@H](CCN)NC(=O)[C@H](Cc2c[nH]c3ccccc23)NC(=O)[C@H](CCN)NC(=O)[C@@H](CCN)NC(=O)[C@H](CCCN)NC(=O)[C@H](CCN)NC(=O)[C@H](Cc2ccc(O)cc2)NC(=O)[C@H](CO)NC1=O` [compound 118] (cyclo([Nva]SY[Dab][Orn][dDab][Dab]W[Dab][Tle]SS[dP]P)), the “Hemolysis at 100 μg/ml” value is reported as 1%.
As to `CC(C)C[C@@H]1NC(=O)[C@@H]2CCCN2C(=O)[C@H]2CCCN2C(=O)[C@H](CO)NC(=O)[C@H](C)NC(=O)[C@H](C(C)(C)C)NC(=O)[C@H](CCN)NC(=O)[C@H](Cc2c[nH]c3ccccc23)NC(=O)[C@H](CCN)NC(=O)[C@H](CCN)NC(=O)[C@H](CCCN)NC(=O)[C@H](CCN)NC(=O)[C@H](Cc2ccc(O)cc2)NC(=O)[C@H](CO)NC1=O` [compound 24] (cyclo(LSY[Dab][Orn][Dab][Dab]W[Dab][Tle]AS[dP]P)), the “Hemolysis at 100 μg/ml” value is 1%.
For the molecule `CC(C)[C@@H]1NC(=O)[C@@H]2CCCN2C(=O)[C@H]2CCCN2C(=O)[C@H](CO)NC(=O)[C@H](C)NC(=O)[C@H](C(C)(C)C)NC(=O)[C@H](CCN)NC(=O)[C@H](Cc2c[nH]c3ccccc23)NC(=O)[C@H](CCN)NC(=O)[C@@H](CCN)NC(=O)[C@H](CCCN)NC(=O)[C@H](CCN)NC(=O)[C@H](Cc2ccc(O)cc2)NC(=O)[C@H](C)NC1=O` [compound 46] (cyclo(VAY[Dab][Orn][dDab][Dab]W[Dab][Tle]AS[dP]P)), the “Hemolysis at 100 μg/ml” value was 1%.
With `CC(=O)N[C@H](C(=O)NC[C@@H]1NC(=O)[C@H](Cc2c[nH]c3ccccc23)NC(=O)[C@@H]2CCCN2C(=O)[C@H]2CCCN2C(=O)[C@H](CO)NC(=O)[C@H](C)NC(=O)[C@H](C(C)(C)C)NC(=O)[C@H](CCN)NC(=O)[C@H](Cc2c[nH]c3ccccc23)NC(=O)[C@H](CCN)NC(=O)[C@@H](CCN)NC(=O)[C@H](CCCN)NC(=O)[C@H](CCN)NC(=O)[C@H](CC2CCCCC2)NC1=O)[C@@H](C)O` [compound 15] (cyclo(W[Dap]([Thr-Ac])[Cha][Dab][Orn][dDab][Dab]W[Dab][Tle]AS[dP]P)), the “Hemolysis at 100 μg/ml” value is on record as 1%.
Take `CC(C)C[C@@H]1NC(=O)[C@@H]2CCCN2C(=O)[C@H]2CCCN2C(=O)[C@H](CO)NC(=O)[C@H](C)NC(=O)[C@H](C2CCCCC2)NC(=O)[C@H](CCN)NC(=O)[C@H](Cc2c[nH]c3ccccc23)NC(=O)[C@H](CCN)NC(=O)[C@H](CCN)NC(=O)[C@H](CCCN)NC(=O)[C@H](CCN)NC(=O)[C@H](Cc2ccc(O)cc2)NC(=O)[C@H](CO)NC1=O` [compound 94] (cyclo(LSY[Dab][Orn][Dab][Dab]W[Dab][Chg]AS[dP]P)): the “Hemolysis at 100 μg/ml” value is on record as 0%.
On to `CC(C)C[C@@H]1NC(=O)[C@@H]2CCCN2C(=O)[C@H]2CCCN2C(=O)[C@H](CO)NC(=O)[C@H](CCN)NC(=O)[C@H](C(C)(C)C)NC(=O)[C@H](CCN)NC(=O)[C@H](Cc2c[nH]c3ccccc23)NC(=O)[C@H](CCN)NC(=O)[C@@H](CCN)NC(=O)[C@H](CCCN)NC(=O)[C@H](CCN)NC(=O)[C@H](Cc2ccc(O)cc2)NC(=O)CNC1=O` [compound 157] (cyclo(LGY[Dab][Orn][dDab][Dab]W[Dab][Tle][Dab]S[dP]P)), for which the “Hemolysis at 100 μg/ml” value is reported as 1%.
Regarding `CC[C@H](C)[C@@H]1NC(=O)[C@@H]2CCCN2C(=O)[C@H]2CCCN2C(=O)[C@H](CO)NC(=O)[C@H](C)NC(=O)[C@H](C(C)(C)C)NC(=O)[C@H](CCN)NC(=O)[C@H](Cc2c[nH]c3ccccc23)NC(=O)[C@H](CCN)NC(=O)[C@@H](CCN)NC(=O)[C@H](CCCN)NC(=O)[C@H](CCN)NC(=O)[C@H](Cc2ccc(O)cc2)NC(=O)[C@H](CN)NC1=O` [compound 146] (cyclo(I[Dap]Y[Dab][Orn][dDab][Dab]W[Dab][Tle]AS[dP]P)), the “Hemolysis at 100 μg/ml” value was found to be 0%.
Consider `C[C@@H]1NC(=O)[C@H](C(C)(C)C)NC(=O)[C@H](CCN)NC(=O)[C@H](Cc2c[nH]c3ccccc23)NC(=O)[C@H](CCN)NC(=O)[C@@H](CCN)NC(=O)[C@H](CCCN)NC(=O)[C@H](CCNCc2ccccn2)NC(=O)[C@H](CC2CCCCC2)NC(=O)[C@H](CN)NC(=O)[C@H](Cc2c[nH]c3ccccc23)NC(=O)[C@@H]2CCCN2C(=O)[C@H]2CCCN2C(=O)[C@H](CO)NC1=O` [Ex. 11] (cyclo(W[Dap][Cha][X2][Orn][dDab][Dab]W[Dab][Tle]AS[dP]P)), for which the “Hemolysis at 100 μg/ml” value was 0%.
In the case of `CC(C)C[C@@H]1NC(=O)[C@@H]2CCCN2C(=O)[C@H]2CCCN2C(=O)[C@H](CO)NC(=O)[C@H](C)NC(=O)[C@H](Cc2c[nH]c3ccccc23)NC(=O)[C@H](CCN)NC(=O)[C@H](Cc2c[nH]c3ccccc23)NC(=O)[C@H](CCN)NC(=O)[C@@H](CCN)NC(=O)[C@H](CCCCN)NC(=O)[C@H](CCN)NC(=O)[C@H](Cc2ccc(O)cc2)NC(=O)[C@H](CO)NC1=O` [compound 108] (cyclo(LSY[Dab]K[dDab][Dab]W[Dab]WAS[dP]P)), the “Hemolysis at 100 μg/ml” value was 1%.
As to `CCC[C@@H]1NC(=O)[C@@H]2CCCN2C(=O)[C@H]2CCCN2C(=O)[C@H](CO)NC(=O)[C@H](C)NC(=O)[C@H](C(C)(C)C)NC(=O)[C@H](CCN)NC(=O)[C@H](Cc2c[nH]c3ccccc23)NC(=O)[C@H](CCN)NC(=O)[C@@H](CCN)NC(=O)[C@H](CCCN)NC(=O)[C@H](CCN)NC(=O)[C@H](Cc2ccc(F)cc2)NC(=O)[C@H](CO)NC1=O` [Ex. 104] (cyclo([Nva]S[Phe(4-F)][Dab][Orn][dDab][Dab]W[Dab][Tle]AS[dP]P)), the “Hemolysis at 100 μg/ml” value amounted to 0.5%.
In the case of `CCC[C@@H]1NC(=O)[C@H](CCN)NC(=O)[C@H](Cc2c[nH]c3ccccc23)NC(=O)[C@H](CCN)NC(=O)[C@@H](CCN)NC(=O)[C@H](CCCN)NC(=O)[C@H](CCN)NC(=O)[C@H](Cc2ccc(O)cc2)NC(=O)[C@H](CO)NC(=O)[C@H](Cc2c[nH]c3ccccc23)NC(=O)[C@@H]2CCCN2C(=O)[C@H]2CCCN2C(=O)[C@H](CO)NC(=O)[C@H](C)NC1=O` [compound 71] (cyclo(WSY[Dab][Orn][dDab][Dab]W[Dab][Nva]AS[dP]P)), the “Hemolysis at 100 μg/ml” value turned out to be 0%.
The value for `CC(C)C[C@@H]1NC(=O)[C@@H]2CCCN2C(=O)[C@H]2CCCN2C(=O)[C@H](CO)NC(=O)[C@H](C)NC(=O)[C@H](C(C)(C)C)NC(=O)[C@H](CCN)NC(=O)[C@H](Cc2c[nH]c3ccccc23)NC(=O)[C@@H](CCN)NC(=O)[C@@H](CCN)NC(=O)[C@H](CCCN)NC(=O)[C@H](CCN)NC(=O)[C@H](Cc2ccc(O)cc2)NC(=O)[C@H](CO)NC1=O` [compound 155] (cyclo(LSY[Dab][Orn][dDab][dDab]W[Dab][Tle]AS[dP]P)) was 0%; that for `C[C@@H]1NC(=O)[C@H](C2CCCCC2)NC(=O)[C@H](CCN)NC(=O)[C@H](Cc2c[nH]c3ccccc23)NC(=O)[C@H](CCN)NC(=O)[C@@H](CCN)NC(=O)[C@H](CCCN)NC(=O)[C@H](CCN)NC(=O)[C@H](Cc2ccc(O)cc2)NC(=O)[C@H](CO)NC(=O)[C@H](Cc2ccc(O)cc2)NC(=O)[C@@H]2CCCN2C(=O)[C@H]2CCCN2C(=O)[C@H](CO)NC1=O` [compound 73] (cyclo(YSY[Dab][Orn][dDab][Dab]W[Dab][Chg]AS[dP]P)) was 0%; that for `CC(C)C[C@@H]1NC(=O)[C@@H]2CCCN2C(=O)[C@H]2CCCN2C(=O)[C@H](CO)NC(=O)[C@H](C)NC(=O)[C@H](C(C)(C)C)NC(=O)[C@H](CCN)NC(=O)[C@H](Cc2c[nH]c3ccccc23)NC(=O)[C@H](CCN)NC(=O)[C@@H](CCN)NC(=O)[C@H](CCCN)NC(=O)[C@H](CCN)NC(=O)[C@H](Cc2c[nH]c3ccccc23)NC(=O)[C@H](CN)NC1=O` [compound 147] (cyclo(L[Dap]W[Dab][Orn][dDab][Dab]W[Dab][Tle]AS[dP]P)) was 0%.
Take `CCC[C@@H]1NC(=O)[C@@H]2CCCN2C(=O)[C@H]2CCCN2C(=O)[C@H](CO)NC(=O)[C@H](C)NC(=O)[C@H](C2CCCCC2)NC(=O)[C@H](CCN)NC(=O)[C@H](Cc2c[nH]c3ccccc23)NC(=O)[C@H](CCN)NC(=O)[C@@H](CCN)NC(=O)[C@H](CCCN)NC(=O)[C@H](CCN)NC(=O)[C@H](CC2CCCCC2)NC(=O)[C@H](C)NC1=O` [compound 150] (cyclo([Nva]A[Cha][Dab][Orn][dDab][Dab]W[Dab][Chg]AS[dP]P)): the “Hemolysis at 100 μg/ml” value amounted to 4%.
The value for `CC(C)C[C@@H]1NC(=O)[C@@H]2[C@@H](O)CCN2C(=O)[C@H]2CCCN2C(=O)[C@H](CO)NC(=O)[C@H](C)NC(=O)[C@H](C(C)(C)C)NC(=O)[C@H](CCN)NC(=O)[C@H](Cc2c[nH]c3ccccc23)NC(=O)[C@H](CCN)NC(=O)[C@@H](CCN)NC(=O)[C@H](CCCN)NC(=O)[C@H](CCN)NC(=O)[C@H](CC2CCCCC2)NC(=O)[C@H](CO)NC1=O` [compound 58] (cyclo(AS[dP][Pro(3S-OH)]LS[Cha][Dab][Orn][dDab][Dab]W[Dab][Tle])) was 1%.

For the origin of these results see patent publication US9938322B2, “β-hairpin peptidomimetics” (priority 2013, dated 2018).
